Experimental data taken from patent US20060110456A1, “Method for biocidal and/or biostatic treatment and compositions therefor” (NATIONAL UNIVERSITY OF SINGAPORE, priority 2004, published 2006).
Counter-ions that a name gives are not always drawn.

How the values were obtained:
[1] = tested on: Balanus amphitrite cyprids; experiment: whole plant or invertebrate
Protocol: (§1) Pharmaceuticals from the respective manufacturers were treated in the following way. A pill containing a known amount of active ingredient (as stated in product information) was ground in a mortar and pestle and a suspension of 2 mg ml^−1 generated in de-ionized water. This stock solution is stored at −20° C. in 4 ml amber screw cap vials. For the bioassays, 250 ul of stock solution is added to 10 ml of 1 um filtered seawater. This suspension was then sonicated for 10 minutes. Serial dilutions of this 50 μg ml^−1 seawater solution, or suspension, with seawater was done to generate the required range of concentrations.
This method is now standard practice for many antifouling screening of novel compounds.
Barnacle larvae from field-collected adults were reared on an algal mixture of 1:2:2 v/v of Rhodomonas salina, Tetraselmis suecica and Chaetoceros muelleri at 25° C., at approximately 5×10^5 cells per ml density. On this regime, larvae metamorphose to cyprids in 5 days.
Test solutions were made up to twice the required final concentration. 1 ml of test solution was added into each well, and cyprids were transferred into each well in 1 ml of seawater. Assays were done in triplicate. After 24 hours, larvae that had attached and metamorphosed were enumerated and the result expressed as percentage settlement. Larvae not attached were scored as not settled.
The Therapeutic Ratio, or LC50/EC50, is a way of assessing the effectiveness of the compound in relation to its toxicity. […] LC50 and EC50 estimates and the therapeutic ratio should be considered as working values providing an estimation of potency, rather than as absolutes.

[2] = tested on: Balanus amphitrite stage II naupliar larvae
Protocol: as §1
Stage II naupliar larvae used in tests were obtained from Balanus amphitrite adults collected from inter-tidal rock walls at Kranji mangrove, Singapore. Larvae were collected from a container of adults by attraction to a point source of light and transferred to 500 ml of fresh seawater. Next, larvae were re-concentrated with a fiber optic light and added to assays.
Duplicate assays were conducted in 2 ml micro-centrifuge tubes (Axygen MCT-200-C) in 1.5 ml of filtered seawater for 22 to 24 hours. The assays were repeated for confirmation. There were four controls (vehicle only, 0 μg ml^−1), and 2 tubes of each for each test concentration. The assay was initiated by addition of barnacle nauplii in 50 to 100 μl of seawater.
After 22 to 24 hours of incubation at 25-27° C., solutions containing test animals were transferred to a Bogorov tray and scored as living or dead. Moribund larvae were scored as dead. Results were confirmed by repeating the assay. […] If data were not appropriate for probit analysis, the LC50 was estimated from graphed data.

marine bacteria = experiment: Growth assay (absorbance, 96-well plates); type: cell-based, marine bacteria isolated from Singapore fouling communities; details: 25 μg ml^−1
Protocol: The dried powder was re-suspended in sterile deionized water and made up to 2 mg ml^−1.
The same bacterial strains were used and cultured the same way as in disc inhibition assay. Cells were harvested by centrifugation at 300 rpm for 10 min. The supernatant was discarded and the pellet re-suspended using sterile seawater collected from St. John's island, Singapore. The concentration of bacterial cells was adjusted to an absorbance of approximately 0.6 using a spectrophotometer (Beckman DU530) at wavelength 600 nm.
The growth with response to the pharmaceuticals was assumed to be proportional to the absorbance of the bacteria. […] To each well 25 μl of each drug solution (concentration adjusted to 100 μg ml^−1) were pipetted into three wells followed by 10 μl of broth and 65 μl of sterile seawater. For wells that were to contain bacteria, 60 μl of sterile seawater was used instead. All wells used for growth studies were prepared in triplicate and inoculated with 5 μl of the bacterial suspension. Blanks consisting of the respective volumes of pharmaceutical with Marine Broth and distilled water, if needed, were prepared in triplicate and inoculated with 5 μl of sterile seawater.
The absorbance (A600) of each well was read in a plate reader (Sunrise Tecan Model F039300) immediately (time=0 hours) and after 1, 2, 3, 4, 20, 23 and 28 hours. Plates were incubated overnight inside a moistened airtight container.
Any changes in absorbance were plotted and compared with control. The mean absorbance (mean bac) from the bacteria was obtained by deducting the absorbance values of blank wells (containing seawater and broth only) from that for the control wells (containing bacteria in seawater and broth only). The absorbance arising from the drugs was obtained from the 0 hr reading for wells containing drugs and bacteria, minus the wells with drugs alone (mean “drug”). The growth assays were repeated three times.

CN1CCN(CCCN2c3ccccc3Sc3ccc(C(F)(F)F)cc32)CC1 [TFZ, Trifluoperazine hydrochloride]
IC50 ([1]; Amphibalanus amphitrite, 24 h, read-out: ED50): 0.0748 µg/mL | Prevention of settlement of barnacle cyprids ([1]; crude rank, best (1) to worst (8)): 2 | LD50 ([2]; barnacle nauplii, 22 to 24 hours, concentration that caused 50% mortality): 9.35 ng/mL | Toxicity to barnacle nauplii and cyprids ([2]; in vivo): very toxic to nauplii and cyprids | Number of strains with strongly inhibited growth (marine bacteria; 25 strains of Table 5): 14 | Inhibition of bacterial growth (marine bacteria; strain 1 (Rhodovulum)): 0 | Inhibition of bacterial growth (marine bacteria; strain 2 (Erythrobacter)): 0 | Inhibition of bacterial growth (marine bacteria; strain 3 (Erythrobacter)): +++ (+++ denotes little or no growth, p < 0.001) | Inhibition of bacterial growth (marine bacteria; strain 4 (Bacillus)): +++ (+++ denotes little or no growth, p < 0.001) | Inhibition of bacterial growth (marine bacteria; strain 6 (Vibrio)): + (+ denotes growth present but inhibited, p < 0.01) | Inhibition of bacterial growth (marine bacteria; strain 7 (Vibrio)): + (+ denotes growth present but inhibited, p < 0.01) | Inhibition of bacterial growth (marine bacteria; strain 8 (Bacillus)): + (+ denotes growth present but inhibited, p < 0.01) | Inhibition of bacterial growth (marine bacteria; strain 9 (Bacillus)): +++ (+++ denotes little or no growth, p < 0.001) | Inhibition of bacterial growth (marine bacteria; strain 10 (Halobacillus)): +++ (+++ denotes little or no growth, p < 0.001) | Inhibition of bacterial growth (marine bacteria; strain 11 (Pseudomonas)): + (+ denotes growth present but inhibited, p < 0.01) | Inhibition of bacterial growth (marine bacteria; strain 12 (Gordonia)): +++ (+++ denotes little or no growth, p < 0.001) | Inhibition of bacterial growth (marine bacteria; strain 13 (Bacillus)): +++ (+++ denotes little or no growth, p < 0.001) | Inhibition of bacterial growth (marine bacteria; strain 14 (Vibrio)): 0 | Inhibition of bacterial growth (marine bacteria; strain 16 (Pseudoalteromonas)): 0 | Inhibition of bacterial growth (marine bacteria; strain 17 (Gordonia)): +++ (+++ denotes little or no growth, p < 0.001) | Inhibition of bacterial growth (marine bacteria; strain 18 (Microbacterium)): +++ (+++ denotes little or no growth, p < 0.001) | Inhibition of bacterial growth (marine bacteria; strain 19 (Erythrobacter)): +++ (+++ denotes little or no growth, p < 0.001) | Inhibition of bacterial growth (marine bacteria; strain 20): + (+ denotes growth present but inhibited, p < 0.01) | Inhibition of bacterial growth (marine bacteria; strain 21): 0 | Inhibition of bacterial growth (marine bacteria; strain 24): + (+ denotes growth present but inhibited, p < 0.01) | Inhibition of bacterial growth (marine bacteria; strain 26): 0 | Inhibition of bacterial growth (marine bacteria; strain 27): +++ (+++ denotes little or no growth, p < 0.001) | Inhibition of bacterial growth (marine bacteria; strain 28): +++ (+++ denotes little or no growth, p < 0.001) | Inhibition of bacterial growth (marine bacteria; strain 29): +++ (+++ denotes little or no growth, p < 0.001) | Inhibition of bacterial growth (marine bacteria; strain 30): +++ (+++ denotes little or no growth, p < 0.001)
